{"source": "paper PMC6107127", "about": "“Characteristics of the mitochondrial and cellular uptake of MPP^+, as probed by the fluorescent mimic, 4'I-MPP^+” (PLoS ONE, 2018)", "key": {"[1]": {"system": "HepG2 cells", "experiment": "MTT cell viability assay", "assay_type": "cell-based, human", "description": "(§1) Cell viability was determined by the MTT [3-(4,5-dimethylthiazol-2-yl)-2,5-diphenyltetrazolium bromide)] assay. Briefly, cells were seeded on 96-well plates and allowed to grow to about 70–80% confluence. Prior to the experiment, culture media was replaced with KRB-HCO3^- containing desired concentrations of MPP^+ or 4'I-MPP^+ and incubated for 16 h at 37 °C. After the incubation, 10 μL of 5 mg/mL MTT solution was added to each well and incubated for 2 h at 37 °C. The resulting formazan was solubilized by the addition of 210 μL detergent solution [50% DMF/H2O (v/v), 20% SDS (w/v)] followed by incubation at 37 °C for 12 h. The cell viabilities were determined by quantifying solubilized formazan by measuring the difference in the absorbance at 570 nm and 650 nm. Results were expressed as % viability of MPP^+ or 4'I-MPP^+ treated cells with respect to control cells, which were treated under the same conditions except in the absence of the MPP^+ or 4'I-MPP^+."}, "[2]": {"system": "MN9D cells", "experiment": "Chromatin condensation test for apoptosis (DAPI)", "assay_type": "cell-based, mouse", "conditions": "250 μM, 12 h", "description": "MN9D cells grown in glass-bottomed plates were treated with 250 μM MPP^+ or 4'I- MPP^+ for 12 h and then with 300 nM DAPI in KRB-HEPES for 15 min in the dark at 37 °C [24]. Then cells were rinsed and PBS was added to cover the cell layer. Increase in nuclear DAPI fluorescence (Ex/Em at 358/461 nm) due to chromatin condensation was observed using a Nikon ECLIPSE Ti-S inverted fluorescence microscope. The controls were treated similarly except that MPP^+ or 4'I-MPP^+ was omitted from the initial incubation medium."}, "[3]": {"system": "MN9D cells", "experiment": "MTT cell viability assay", "assay_type": "cell-based", "conditions": "Mus musculus, 16 h incubation", "description": "as §1"}, "[4]": {"system": "isolated MN9D cell mitochondria", "experiment": "Uptake into isolated MN9D cell mitochondria", "set-up": "species or system mouse", "conditions": "400 μM, 45 min at 37 °C", "description": "Intact mitochondria were isolated from MN9D cells according to the published procedure of Frezza et al.. The isolated intact mitochondrial preparations were suspended in KCl buffer and aliquots (5 μL) were withdrawn for protein determination. Desired amounts of mitochondrial suspensions were incubated with 400 μM MPP^+ or 4'I-MPP^+ in KCl buffer for 45 min at 37 °C. After the incubation, incubates were centrifuged at 7,000 x g at 4 °C for 10 min and the mitochondrial pellets were treated with 75 μL of 0.1 M HClO4."}, "[5]": {"system": "MN9D cells", "experiment": "Intracellular ATP levels", "assay_type": "cell-based, mouse", "conditions": "100 μM, 6 h at 37 °C", "description": "(§2) Cells grown in 12-well plates were treated with 100 μM MPP^+ or 4'I-MPP^+ in KRB-HEPES for 6 h at 37 °C. After the treatments, cells were suspended in 1 mL of ice-cold KRB-HEPES and 50 μL samples were withdrawn for protein quantification. The remaining cell suspensions were centrifuged for 3 min at 3,500 x g at 4 °C and the cell pellets were treated with 1 mL of lysis buffer (0.1 M Tris, 1% Triton X-100, pH 7.5) for 2 min and centrifuged at 3,500 x g for 3 min to remove the cell debris. The ATP contents of the supernatants were measured using a fluorometric ATP assay kit (BioVision, Milpitas CA, USA) following the manufacture’s guidelines. All ATP levels were normalized to the protein content of each sample."}, "[6]": {"system": "HepG2 cells", "experiment": "Intracellular ATP levels", "assay_type": "cell-based, human", "conditions": "100 μM, 6 h at 37 °C", "description": "as §2"}, "[7]": {"system": "MN9D or HepG2 cells", "experiment": "Mitochondrial membrane potential depolarization (TMRM)", "assay_type": "cell-based", "conditions": "100 μM", "description": "MN9D or HepG2 cells grown in glass-bottomed plates were treated with 50 nM TMRM (AnaSpec, Fremont CA, USA) in KRB-HEPES for 45 min in the dark. After mounting on the stage of a Nikon ECLIPSE Ti-S inverted fluorescence microscope, 15–20 ROIs with uniform fluorescence were selected and TMRM fluorescence at Ex/Em at 543/573 nm was recorded at 5 sec time intervals for 3 min. Then, MPP^+ or 4'I-MPP^+ was added to a final concentration of 500 or 100 μM, respectively and TMRM fluorescence measurements were continued for an additional 40 min for MPP^+ and 15 min for 4'I-MPP^+ at 15 sec time intervals. The background fluorescence was subtracted from the ROI fluorescence and averages of corrected data were used to estimate the magnitude of the mitochondrial membrane potential."}, "[8]": {"experiment": "Solubility in incubation media", "assay_type": "physicochemical", "conditions": "concentrations above 200 μM"}, "[9]": {"system": "MN9D cells", "experiment": "Cellular uptake of MPP+ and 4'I-MPP+ (HPLC-UV / fluorescence)", "assay_type": "cell-based, mouse", "conditions": "100 μM toxin, 60 min, 37 °C, KRB-HEPES", "description": "Cells were seeded into 12-well plates at 0.25 x 10^6 cells/well and grown 2–3 days to about 70–80% confluency. The media was removed and a solution containing 100 μM MPP^+ or 4'I-MPP^+ in warm KRB-HEPES (or without Ca^2+ and with 1.4 mM EGTA) was added to each well and incubated at 37 °C for the desired period of time (see Figure legends for further details). After the incubations, the media were removed and cells were washed with ice-cold KRB-HEPES. Washed cells were suspended in 1.0 mL of ice-cold KRB-HEPES and 50 μL aliquots were withdrawn for protein determination. The remaining cell suspensions were centrifuged at 5000 x g at 4 °C for 5 min and the cell pellets were treated with 75 μL of 0.1 M HClO4. The coagulated proteins were pelleted by centrifugation at 13,200 x g at 4 °C for 8 min and the MPP^+ or 4'I-MPP^+ contents of the supernatants were determined by C18-reversed-phase HPLC-UV (HPLC-UV) as previously described using standard curves constructed from authentic standards. The standard curves for HPLC-UV quantifications were constructed using authentic samples of MPP^+ and 4'I-MPP^+ under the same HPLC-UV separation conditions (S1 Fig).\nTo quantify 4'I-MPP^+ uptake by fluorescence, MN9D or HepG2 cells grown in glass bottomed plates, washed, and reconstituted with KRB-HEPES (1.0 mL), pH 7.4, and mounted on the stage of a Nikon ECLIPSE Ti-S inverted fluorescence microscope. […]"}}, "data": [{"compound": "C[n+]1ccc(-c2ccc(I)cc2)cc1", "note": "[4'I-MPP^+, 1-methyl-4-(4'-iodophenyl)pyridinium]", "values": [{"measurement": "HepG2 cell toxicity", "setting": "[1]; MPP+ at 0–1000 μM, 4'I-MPP+ at 0–200 μM, 16 h", "result": "resistant"}, {"measurement": "concentration above which toxic to HepG2 cells", "setting": "[1]; rough estimates, data not shown", "result": "above 250 μM"}, {"measurement": "apoptotic cell death (chromatin condensation)", "setting": "[2]", "result": "cause apoptotic MN9D cell death"}, {"measurement": "IC50", "setting": "[3]", "result": "~40", "unit": "µM"}, {"measurement": "rate of uptake into isolated mitochondria", "setting": "[4]", "result": "faster than that of MPP^+"}, {"measurement": "effect on intracellular ATP levels", "setting": "[5]", "result": "deplete intracellular ATP levels"}, {"measurement": "effect on intracellular ATP levels", "setting": "[6]", "result": "deplete intracellular ATP levels"}, {"measurement": "time to depolarize the mitochondrial membrane by 20–50%", "setting": "[7]", "result": 20, "unit": "min"}, {"measurement": "solubility in the incubation media", "setting": "[8]", "result": "low solubility"}, {"measurement": "cellular uptake in 1 h", "setting": "[9]", "result": "1.2 nmoles/mg of protein"}]}]}
